Publication PMC11302729, “Repurposing Hsp90 inhibitors as antimicrobials targeting two-component systems identifies compounds leading to loss of bacterial membrane integrity” (Microbiology Spectrum, 2024)
In brackets after ≈: the same amount, converted by molar mass. Several values for one entry are separate records, joined by “and”; a condition that tells them apart may be missing. Equal entries are not always repeated. Where two headings read alike, the source gives them in different places.

Columns and labels:
Assay type in all cases: cell-based
[1] = system: Staphylococcus aureus str. Newman; assay: Minimal inhibitory concentration (microdilution) against S. aureus; details: for MIC S. aureus: Table ST3
Experimental: (§1) Staphylococcus aureus str. Newman, Enterococcus faecalis vanA (strain E0155), Enterococcus faecium vanA (strain E1654), Escherichia coli ATCC 25922, Escherichia coli D21f2 with a truncated LPS barrier, Escherichia coli JW5503 (ΔtolC) ([49]), Pseudomonas aeruginosa ATCC 27853, and Pasteurella haemolytica ATCC 29701 were grown in Mueller-Hinton Broth (MHB) (Oxoid, Basingstoke, UK) and incubated at 37°C.
(§2) The minimal inhibitory concentration was determined using the microdilution method following the guidelines of the European Committee on Antimicrobial Susceptibility Testing ([50]). Briefly, a series of twofold dilutions in MHB of each compound were made in a 96-well plate, with final concentrations ranging from 50 to 0.39 µg/mL in 100 µL final volume per well. A hundred microliters of 1:100 dilution of an overnight culture of the correspondent bacteria in MHB was added to each well. Plates were incubated for 18 hours at 37°C. MIC was recorded as the lowest concentration where no growth was detected as measured by optical density at 600 nm (OD600) using Spectramax M5 (Molecular Devices LLC, San Jose, CA, USA). […] Wells containing bacteria with or without 1% DMSO and medium alone were included as controls in every plate.

in vitro = details: human
Experimental: (§3) HEK293 cells and the human hepatocellular carcinoma cells (HepG2) were routinely cultured in 75-cm^2 culture flasks (Corning Incorporated) on high-glucose Dulbecco’s modified Eagle medium (DMEM) containing glutaMax and phenol red (Gibco) supplemented with 1% penicillin/streptomycin (Gibco) and 10% fetal bovine serum (FBS) (Gibco). Cells were maintained at 37°C and 5% CO2.
(§4) Cytotoxicity assays with HEK293 and HepG2 cells were performed in 96-well plates seeded with 5 × 10^4 cells/well and incubated for 24 hours to reach 80%–90% confluency. Exterior wells were filled with only medium to prevent evaporation. Culture medium was removed from the cells, and 100 µL of exposure medium [high-glucose DMEM without phenol red (Gibco)] was added to avoid a potential interaction between FBS components or antibiotics and tested compounds. A twofold dilution series of compounds in exposure medium (range 100–3.2 μg/mL) was made in a separate 96-well plate, and 100 µL of each of these dilutions was added to the assay plates for 24 hours at 37°C in the presence of 5% CO2. Control wells contained cells with DMEM, DMEM + 1% DMSO (vehicle control), or DMEM + 20% DMSO. Wells without cells were also included as negative control. After exposure, the medium was replaced with 100 µL 10% Alamar Blue (Invitrogen) in exposure medium. After 45 min incubation at 37°C and 5% CO2, fluorescence was measured on a Spectramax M5 plate reader at λex = 541 nm, λem = 590 nm. Cell viability compared with the vehicle control was calculated, and inhibition curves for each compound were fitted (non-linear curve fit, four variables, bottom constrained = 0) in Prism 9 (GraphPad Software, San Diego, USA).

HEK293 cells [2] = assay: in vitro; details: for Selectivity Index: LC50/MIC (HEK293 / S. aureus); for LC20: human, 24 h
Experimental: as §3, §4

[3] = system: Enterococcus faecium vanA (strain E1654); assay: MIC (microdilution) against E. faecium; details: Enterococcus faecium, read-out: MIC E. faecium
Experimental: as §1, §2

[4] = system: Enterococcus faecalis vanA (strain E0155); assay: MIC (microdilution) against E. faecalis; details: Enterococcus faecalis, read-out: MIC E. faecalis
Experimental: as §1, §2

[5] = system: Pasteurella haemolytica ATCC 29701; assay: MIC (microdilution) against P. haemolytica; details: Mannheimia haemolytica
Experimental: as §1, §2

[6] = system: Pseudomonas aeruginosa ATCC 27853; assay: MIC (microdilution) against P. aeruginosa; details: Pseudomonas aeruginosa, ATCC27853; Table ST1; read-out: MIC P. aeruginosa
Experimental: as §1, §2

[7] = system: Escherichia coli ATCC 25922; assay: MIC (microdilution) against E. coli; details: Escherichia coli, ATCC25922; Table ST1; read-out: MIC E. coli
Experimental: as §1, §2

[8] = system: Escherichia coli JW5503 (ΔtolC); assay: MIC (microdilution) against E. coli JW5503; details: Escherichia coli, read-out: MIC E. coli JW5503
Excerpt: (§5) We also tested the inhibitory activity of compounds in two different E. coli mutants: (i) E. coli JW5503 that lacks TolC efflux pumps and (ii) E. coli D21f2 that has a defective LPS inner core increasing permeability of the outer membrane. E. coli D21f2 has a slightly higher susceptibility to DPP compounds than E. coli ATCC25922.
as §1, §2

[9] = system: Escherichia coli D21f2 with a truncated LPS barrier; assay: MIC (microdilution) against E. coli D21f2; details: read-out: MIC E coli D21f2
Excerpt: as §5, §1, §2

sheep red blood cells = assay: Haemolysis assay; details: for Haemolysis: if considered to cause haemolysis to red blood cells
Experimental: The hemolysis assay was adapted from the study by Evans et al. ([65]). Briefly, sheep RBC 10% washed pooled cells in PBS (Rockland Immunochemicals, Limerick, PA, USA) were diluted 1:5 to give a final concentration of 2% RBCs in PBS. […] A non-treated control, 1% DMSO (vehicle control), and complete cell lysis control (Triton-X 2%) were included in each assay. After exposure samples were centrifuged at 4°C at 1,000 g for 15 min and 100 µL of supernatant transferred to a clean well in a 96-well, clear, flat-bottom plate (Corning Incorporated). Released hemoglobin was measured by absorption at 540 nm using a Spectramax M5 plate reader. The experiments were performed in quadruplicate. The percentage of hemolysis was calculated as follows:
Hemolysis=A540nm,testcondition−A540nm,DMSOcontrol/A540nm,TritonXControl−A540nm,DMSOcontrol

S. aureus str. Newman = assay: Membrane permeability using SYTOX-Green, flow cytometry; details: for % FITC stained bacteria 0.5 xMIC: 0.5× MIC; for % FITC stained bacteria 0.5 xMIC / % FITC stained bacteria 1 xMIC / % FITC stained bacteria 2 xMIC: 5 min exposure; for % FITC stained bacteria 1 xMIC: 1× MIC; for % FITC stained bacteria 2 xMIC: 2× MIC; for Membrane damage: if considered to cause membrane damage to S. aureus
Experimental: S. aureus str. Newman was grown to exponential phase (OD600 = 0.4) in MHB media. […] Nisin (Sigma-Aldrich) and novobiocin (Sigma-Aldrich) were used as positive and negative controls for membrane permeabilization, and stained and unstained untreated controls were also included in each assay. After exposure, samples were centrifuged at 4,000 r.p.m. for 5 min and resuspended in PBS. Bacteria were dyed by adding the fluorescent nuclear stain SYTOX Green (Molecular Probes, Invitrogen) to a final concentration of 0.5 µM and incubating for 5 min in the dark. Samples were centrifuged again and resuspended with PBS to remove unbound stain. Three hundred microliters of each sample was transferred to a clean well in a 96-well clear-bottom plate (Corning Incorporated). Fluorescence was measured in CytoFLEX flow cytometer (Beckman Coulter, Brea, CA, USA) using the green (FITC) channel with the excitation wavelength at 488 nm. Overlay histograms were created with CytExpert Software (Beckman Coulter, Brea, CA, USA).

HEK293 cells [10] = assay: Cell imaging of HEK293 cells; details: for cells in G2/M phase: HEK293, LC20, 24 hours exposure, DMSO control 2.68% ± 1.31%; for Morphological changes of HEK293 cells: LC20, 24 hours exposure, 40× amplification
Experimental: HEK293 cells were plated in 24-well plates on exposure medium for 24 hours (500,000 cells/well). Cells were exposed to a subset of compounds at a lethal concentration of 20% (LC20). After 24 hours exposure, cells were fixed with 2% glutaraldehyde for 15 min, washed with water, permeabilized with 0.5% Triton-X, washed twice with water, and stained with Toluidine blue 0.3%. For 100× amplification, cells were harvested by pipetting up and down in 250 µL of exposure medium. Cells from three wells treated with the same compound were pooled and centrifuged for 5 min at 1,500 r.p.m. The cell pellet was fixed in 0.1 M cacodylate buffer containing 2% glutaraldehyde (vol/vol) (pH 7.4). After 1 hour on ice, the pellet was washed with 0.1 M cacodylate buffer and fixed in 0.1 M cacodylate buffer containing 1% osmium tetroxide (wt/vol). After a further hour on ice, the cell pellet was embedded in hard Epon and 1-µm slides were cut and stained with 1% toluidine blue and 1% borax (wt/vol). Cell abnormalities were assessed by microscopy using a Leica DM6B light microscope (Leica Microsystems B.V., Amsterdam, the Netherlands) at 100× magnification.

[11] = Staphylococcus aureus, NEWMAN, Fig 2
[12] = Staphylococcus aureus, NEWMAN, Fig 2, value in parentheses
[13] = Table ST3, value in parentheses
[14] = ATCC29701, Table ST1, read-out: MIC P. haemolytica
[15] = ATCC29701, read-out: MIC P. haemolytica, Table ST1

| SMILES | MIC [1, 11] | MIC [1, 12] | MIC S. aureus [1] | MIC [1, 13] | CC50 at 24 h (in vitro) | Selectivity Index (HEK293 cells [2]) | MIC [3] | MIC [4] | MIC [6] | MIC [7] | MIC [8] | MIC [9] | Haemolysis (sheep red blood cells) | MIC [5, 15] | % FITC stained bacteria 0.5 xMIC (S. aureus str. Newman) | % FITC stained bacteria 1 xMIC (S. aureus str. Newman) | % FITC stained bacteria 2 xMIC (S. aureus str. Newman) | Membrane damage (S. aureus str. Newman) | also measured |
| --- | --- | --- | --- | --- | --- | --- | --- | --- | --- | --- | --- | --- | --- | --- | --- | --- | --- | --- | --- |
| Oc1ccccc1-c1[nH]nc(C(F)(F)F)c1-c1ccc(Cl)cc1 [DPP-22] | 1.56 µg/mL | 4.59 µM | 1.56 µg/mL (≈ 4.61 µM) | 4.59 µM | 2.89 µg/mL and 8.5 µM | 1.85 | 12.5 µg/mL (≈ 36.9 µM) | 12.5 µg/mL (≈ 36.9 µM) | > 250 µg/mL | > 250 µg/mL | 1.56 µg/mL (≈ 4.61 µM) | 25 µg/mL (≈ 73.8 µM) | YES |  |  |  |  |  | MIC [5, 14]: 12.5 µg/mL (≈ 36.9 µM) |
| Oc1ccc(-c2onc(C(F)(F)F)c2-c2ccc(Cl)cc2)c(O)c1 [DPP-11] | 3.12 µg/mL | 8.76 µM | 3.12 µg/mL (≈ 8.77 µM) | 8.76 µM | 3.41 µg/mL and 9.61 µM | 1.10 | 12.5 µg/mL (≈ 35.1 µM) | 12.5 µg/mL (≈ 35.1 µM) | > 250 µg/mL | > 250 µg/mL | 1.56 µg/mL (≈ 4.39 µM) | 25 µg/mL (≈ 70.3 µM) | YES | 62.5 µg/mL (≈ 176 µM) | 24.77% | 28.12% | 57.97% | YES |  |
| FC(F)(F)c1n[nH]c(-c2ccccc2)c1-c1ccc(Cl)cc1 [DPP-21] | 1.56 µg/mL | 4.8 µM | 1.56 µg/mL (≈ 4.83 µM) | 4.8 µM |  | 4.56 | 12.5 µg/mL (≈ 38.7 µM) | 12.5 µg/mL (≈ 38.7 µM) | > 250 µg/mL | > 250 µg/mL | 1.56 µg/mL (≈ 4.83 µM) | > 250 µg/mL | YES |  | 31.51% | 35.84% | 51.03% | YES | MIC [5, 14]: 12.5 µg/mL (≈ 38.7 µM) |
| CCOc1ccc(-c2[nH]nc(C(F)(F)F)c2-c2ccccc2)c(O)c1 [DPP-3] | 6.25 µg/mL | 17.9 µM | 6.25 µg/mL (≈ 17.9 µM) | 17.86 µM | 25.6 µg/mL and 76.5 µM | 4.1 | > 250 µg/mL | > 250 µg/mL | > 250 µg/mL | > 250 µg/mL | 1.56 µg/mL (≈ 4.48 µM) |  | YES | 50 µg/mL (≈ 144 µM) | 35.78% | 49.41% | 58.28% | YES |  |
| CCOc1ccc(-c2[nH]nc(C(F)(F)F)c2-c2ccc(OC)c(OC)c2)c(O)c1 [DPP-20] | 12.5 µg/mL | 30.5 µM | 12.5 µg/mL (≈ 30.6 µM) | 30.49 µM | 16.5 µg/mL and 40.3 µM | 1.32 | 25 µg/mL (≈ 61.2 µM) | 25 µg/mL (≈ 61.2 µM) | > 250 µg/mL | > 250 µg/mL | 6.25 µg/mL (≈ 15.3 µM) |  |  | > 250 µg/mL | 31.90% | 40.99% | 50.97% | YES | LC20 (HEK293 cells [2]): 3 µg/mL (≈ 7.35 µM); RBC hemolysis (sheep red blood cells): not hemolytic; cells in G2/M phase (HEK293 cells [10]): 26.25% ± 4.68%; Morphological changes of HEK293 cells (HEK293 cells [10]): no morphological changes |
| Oc1cc(OCc2ccccc2)ccc1-c1[nH]nc(C(F)(F)F)c1-c1ccc(Cl)cc1 [DPP-8] | 1.56 µg/mL | 3.51 µM | 1.56 µg/mL (≈ 3.51 µM) | 3.51 µM | 14.2 µg/mL and 32 µM | 9.14 | 3.12 µg/mL (≈ 7.01 µM) | 1.56 µg/mL (≈ 3.51 µM) | > 250 µg/mL | > 250 µg/mL | 12.5 µg/mL (≈ 28.1 µM) | 25 µg/mL (≈ 56.2 µM) | YES | 250 µg/mL (≈ 562 µM) | 12.26% | 32.15% | 36.10% | YES |  |
| CCOc1ccc(-c2[nH]nc(C(F)(F)F)c2-c2ccc(OC)cc2)c(O)c1 [DPP-14] | 6.25 µg/mL | 16.4 µM | 6.25 µg/mL (≈ 16.5 µM) | 16.45 µM | 6.57 µg/mL and 17.3 µM | 1.05 | 12.5 µg/mL (≈ 33 µM) | 12.5 µg/mL (≈ 33 µM) | > 250 µg/mL | > 250 µg/mL | 3.13 µg/mL (≈ 8.27 µM) |  |  | > 250 µg/mL | 28.78% | 44.58% | 56.62% | YES | LC20 (HEK293 cells [2]): 3 µg/mL (≈ 7.93 µM); RBC hemolysis (sheep red blood cells): not hemolytic; cells in G2/M phase (HEK293 cells [10]): 12.24% ± 1.23%; Morphological changes of HEK293 cells (HEK293 cells [10]): no morphological changes |
